In patent publication US20090143454A1, “Pyrazoline Derivatives and Their Use As Pesticides” (BAYER CROPSCIENCE AG, priority 2001, published 2009):

Tested on: not listed separately
Assay: logP determination by HPLC on reversed-phase column (EEC Directive 79/831 Annex V.A8)
Assay type: physicochemical
Settings: pH 2.3
Protocol: The logP values given in the Preparation Examples and Tables above are determined in accordance with EEC Directive 79/831 Annex V.A8 by HPLC (High Performance Liquid Chromatography) using a reversed-phase column (C 18). Temperature: 43° C.
The determination in the acidic range is carried out at pH 2.3 using the mobile phases 0.1% aqueous phosphoric acid and acetonitrile; linear gradient from 10% acetonitrile to 90% acetonitrile.
Calibration is carried out using unbranched alkan-2-ones (having 3 to 16 carbon atoms) with known logP values (determination of the logP values by the retention times using linear interpolation between two successive alkanones).

SMILES | logP (pH 2)/m.p. | logP (pH 2)
N#Cc1cnn(C2CN(C(=O)Nc3ccc(OC(F)(F)F)cc3)N=C2c2ccc(Cl)cc2)c1 (stereo not drawn) [Example 3] | 3.91 | 
N#Cc1cnn(C2CN(C(=O)Nc3ccc(C(F)(F)F)cc3)N=C2c2ccc(Cl)cc2)c1 (stereo not drawn) [Example 4] | 3.86 | 
N#Cc1cnn(C2CN(C(=O)Nc3ccc(SC(F)(F)F)cc3)N=C2c2ccc(Cl)cc2)c1 (stereo not drawn) [Example 5] | 4.27 | 
COC(=O)N(C(=O)N1CC(n2cc(C#N)cn2)C(c2ccc(Cl)cc2)=N1)c1ccc(OC(F)(F)F)cc1 (stereo not drawn) [Example 6] | 3.82 | 
CCOC(=O)N(C(=O)N1CC(n2cc(C#N)cn2)C(c2ccc(Cl)cc2)=N1)c1ccc(OC(F)(F)F)cc1 (stereo not drawn) [Example 7] | 4.06 | 
N#Cc1cnn(C2CN(C(=O)Nc3ccc(OC(F)(F)F)cc3)N=C2c2ccc(Br)cc2)c1 (stereo not drawn) [Example 9] | 4.00 | 
N#Cc1cnn(C2CN(C(=O)Nc3ccc(SC(F)(F)F)cc3)N=C2c2ccc(Br)cc2)c1 (stereo not drawn) [Example 10] | 4.35 | 
N#Cc1cnn(C2CN(C(=O)Nc3ccc(S(=O)(=O)C(F)(F)F)cc3)N=C2c2ccc(Br)cc2)c1 (stereo not drawn) [Example 11] | 3.88 | 
N#Cc1cnn(C2CN(C(=O)Nc3ccc([S+]([O-])C(F)(F)F)cc3)N=C2c2ccc(Cl)cc2)c1 (stereo not drawn) [Example 12] | 3.28 | 
N#Cc1cnn(C2CN(C(=O)Nc3ccc(OC(F)(F)F)cc3)N=C2c2ccc(I)cc2)c1 (stereo not drawn) [Example 13] | 4.12 | 
N#Cc1cnn(C2CN(C(=O)Nc3ccc(SC(F)(F)F)cc3)N=C2c2ccc(I)cc2)c1 (stereo not drawn) [Example 14] | 4.48 | 
N#Cc1cnn(C2CN(C(=O)Nc3ccc(OC(F)(F)F)cc3)N=C2c2ccc(SC(F)(F)F)cc2)c1 (stereo not drawn) [Example 15] | 4.39 | 
N#Cc1cnn(C2CN(C(=O)Nc3ccc(SC(F)(F)F)cc3)N=C2c2ccc(SC(F)(F)F)cc2)c1 (stereo not drawn) [Example 16] | 4.73 | 
COC(=O)c1cnn(C2CN(C(=O)Nc3ccc(OC(F)(F)F)cc3)N=C2c2ccc(Cl)cc2)c1 (stereo not drawn) [Example 17] | 3.95 | 
N#Cc1cnn(C2CN(C(=O)Nc3ccc(S(=O)(=O)C(F)(F)F)cc3)N=C2c2ccc(Cl)cc2)c1 (stereo not drawn) [Example 18] | 3.78 | 
CN(C)C(=O)c1cnn(C2CN(C(=O)Nc3ccc(OC(F)(F)F)cc3)N=C2c2ccc(Cl)cc2)c1 (stereo not drawn) [Example 19] | 3.27 | 
CNC(=O)c1cnn(C2CN(C(=O)Nc3ccc(OC(F)(F)F)cc3)N=C2c2ccc(Cl)cc2)c1 (stereo not drawn) [Example 20] | 3.07 | 
CNC(=O)c1cnn(C2CN(C(=O)Nc3ccc(SC(F)(F)F)cc3)N=C2c2ccc(Cl)cc2)c1 (stereo not drawn) [Example 21] | 3.39 | 
CNC(=O)c1cnn(C2CN(C(=O)Nc3ccc(S(=O)(=O)C(F)(F)F)cc3)N=C2c2ccc(Cl)cc2)c1 (stereo not drawn) [Example 22] | 3.00 | 
NC(=O)c1cnn(C2CN(C(=O)Nc3ccc(OC(F)(F)F)cc3)N=C2c2ccc(Cl)cc2)c1 (stereo not drawn) [Example 23] | 2.94 | 
NC(=O)c1cnn(C2CN(C(=O)Nc3ccc(SC(F)(F)F)cc3)N=C2c2ccc(Cl)cc2)c1 (stereo not drawn) [Example 24] | 3.24 | 
NC(=O)c1cnn(C2CN(C(=O)Nc3ccc(S(=O)(=O)C(F)(F)F)cc3)N=C2c2ccc(Cl)cc2)c1 (stereo not drawn) [Example 25] | 2.94 | 
CN(C)C(=O)c1cnn(C2CN(C(=O)Nc3ccc(SC(F)(F)F)cc3)N=C2c2ccc(Cl)cc2)c1 (stereo not drawn) [Example 26] | 3.27 | 
CN(C)C(=O)c1cnn(C2CN(C(=O)Nc3ccc(S(=O)(=O)C(F)(F)F)cc3)N=C2c2ccc(Cl)cc2)c1 (stereo not drawn) [Example 27] | 3.27 | 
N#Cc1cnn(C2CN(C(=O)Nc3ccc(Br)cc3)N=C2c2ccc(Cl)cc2)c1 (stereo not drawn) [Example 28] | 3.73 | 

SMILES | logP (pH 2)/m.p. | logP (pH 2)
N#Cc1ccc(NC(=O)N2CC(n3cc(C#N)cn3)C(c3ccc(Cl)cc3)=N2)cc1 (stereo not drawn) [Example 29] | 3.00 | 
N#Cc1cnn(C2CN(C(=O)Nc3ccc(I)cc3)N=C2c2ccc(Cl)cc2)c1 (stereo not drawn) [Example 30] | 3.90 | 
N#CCN(C(=O)N1CC(n2cc(C#N)cn2)C(c2ccc(Cl)cc2)=N1)c1ccc(Cl)cc1 (stereo not drawn) [Example 31] | 3.42 | 
N#CCN(C(=O)N1CC(n2cc(C#N)cn2)C(c2ccc(Cl)cc2)=N1)c1ccc(SC(F)(F)F)cc1 (stereo not drawn) [Example 32] | 3.90 | 
N#CCN(C(=O)N1CC(n2cc(C#N)cn2)C(c2ccc(Br)cc2)=N1)c1ccc(OC(F)(F)F)cc1 (stereo not drawn) [Example 33] | 3.75 | 
N#CCN(C(=O)N1CC(n2cc(C#N)cn2)C(c2ccc(Br)cc2)=N1)c1ccc(SC(F)(F)F)cc1 (stereo not drawn) [Example 34] | 3.99 | 
N#CCN(C(=O)N1CC(n2cc(C#N)cn2)C(c2ccc(Br)cc2)=N1)c1ccc(C(F)(F)F)cc1 (stereo not drawn) [Example 35] | 3.63 | 
N#CCN(C(=O)N1CC(n2cc(C#N)cn2)C(c2ccc(Cl)cc2)=N1)c1ccc(C(F)(F)F)cc1 (stereo not drawn) [Example 36] | 3.56 | 
N#Cc1cnn(C2CN(C(=O)Nc3ccc(C(F)(F)F)cc3)N=C2c2ccc(Br)cc2)c1 (stereo not drawn) [Example 37] | 3.94 | 
N#Cc1cnn(C2CNN=C2c2ccc(Br)cc2)c1 (stereo not drawn) [II-2] |  | 2.20
N#Cc1cnn(C2CNN=C2c2ccc(I)cc2)c1 (stereo not drawn) [II-3] |  | 2.33
N#Cc1cnn(C2CNN=C2c2ccc(SC(F)(F)F)cc2)c1 (stereo not drawn) [II-4] |  | 2.78
COC(=O)c1cnn(C2CNN=C2c2ccc(Cl)cc2)c1 (stereo not drawn) [II-5] |  | 2.13
CN(C)C(=O)c1cnn(C2CNN=C2c2ccc(Cl)cc2)c1 (stereo not drawn) [II-6] |  | 1.54
CNC(=O)c1cnn(C2CNN=C2c2ccc(Cl)cc2)c1 (stereo not drawn) [II-7] |  | 1.38
NC(=O)c1cnn(C2CNN=C2c2ccc(Cl)cc2)c1 (stereo not drawn) [II-8] |  | 1.28
N#Cc1cnn(CC(=O)c2ccc(Br)cc2)c1 [VI-3] |  | 2.31
N#Cc1cnn(CC(=O)c2ccc(I)cc2)c1 [VI-4] |  | 2.47
N#Cc1cnn(CC(=O)c2ccc(SC(F)(F)F)cc2)c1 [VI-5] |  | 2.91
COC(=O)c1cnn(CC(=O)c2ccc(Cl)cc2)c1 [VI-6] |  | 2.20
CNC(=O)c1cnn(CC(=O)c2ccc(Cl)cc2)c1 [VI-7] |  | 1.44
NC(=O)c1cnn(CC(=O)c2ccc(Cl)cc2)c1 [VI-8] |  | 1.33
N#CCNc1ccc(SC(F)(F)F)cc1 [XII-2] |  | 2.82
N#CCNc1ccc(C(F)(F)F)cc1 [XII-3] |  | 2.36

Same assay, conditions: reversed-phase C18 HPLC column; values in the text of the Preparation Examples; HPLC, acidic range pH 2.3, 43° C.; read-out: logP (pH 2)

SMILES | chromatographic logP
O=C(O)c1cnn(CC(=O)c2ccc(Cl)cc2)c1 [1-(4-chlorophenacyl)-pyrazole-4-carboxylic acid] | 1.67
N#Cc1cnn(C2CN(C(=O)Nc3ccc(Cl)cc3)N=C2c2ccc(Cl)cc2)c1 (stereo not drawn) [Example 1, 4′-chloro-3-(4-chlorophenyl)-4-(4-cyanopyrazol-1-yl)-4,5-dihydro-1-pyrazolecarboxanilide] | 3.64
N#CCN(C(=O)N1CC(n2cc(C#N)cn2)C(c2ccc(Cl)cc2)=N1)c1ccc(OC(F)(F)F)cc1 (stereo not drawn) [Example 2, 3-(4-chlorophenyl)-4-(4-cyanopyrazol-1-yl)-4,5-dihydro-1-pyrazole-(N-cyanomethyl)-4′-trifluoromethoxycarboxanilide] | 3.68
CN(C)C(=O)c1cnn(CC(=O)c2ccc(Cl)cc2)c1 [VI-2, N,N-dimethyl-1-(4-chlorophenacyl)-pyrazole-4-carboxamide] | 1.62
N#CCNc1ccc(OC(F)(F)F)cc1 [XII-1, N-cyanomethyl-4-trifluoromethoxyaniline] | 2.49

Tested on: Lucilia cuprina larvae
Assay: Blowfly larvae test/development-inhibitory action
Assay type: in vivo
Settings: 20 ppm; after 48 h
Protocol: 20 mg of active compound are dissolved in 1 ml of dimethyl sulphoxide. More dilute concentrations are prepared by dilution with distilled water.
About 20 Lucilia cuprina larvae are introduced into a test tube which contains about 1 cm^3 of horsemeat and 0.5 ml of the preparation of active compound to be tested. The activity of the preparation of active compound is determined after 24 and 48 hours. The test tubes are transferred into a beaker whose bottom is covered with sand. After a further 2 days, the test tubes are removed and the pupae are counted.
The activity of the preparation of active compound is assessed using the number of flies that have hatched after 1.5 times the development period of an untreated control. 100% means that none of the flies have hatched; 0% means that all of the flies have hatched normally.

SMILES | activity/kill rate in % after 48 h
N#Cc1cnn(C2CN(C(=O)Nc3ccc(OC(F)(F)F)cc3)N=C2c2ccc(Cl)cc2)c1 (stereo not drawn) [drawing 78] | 100/100%
COC(=O)N(C(=O)N1CC(n2cc(C#N)cn2)C(c2ccc(Cl)cc2)=N1)c1ccc(OC(F)(F)F)cc1 (stereo not drawn) [drawing 79] | 100/100%
N#Cc1cnn(C2CN(C(=O)Nc3ccc(OC(F)(F)F)cc3)N=C2c2ccc(Br)cc2)c1 (stereo not drawn) [drawing 81] | 100/100%
N#Cc1cnn(C2CN(C(=O)Nc3ccc(S(=O)(=O)C(F)(F)F)cc3)N=C2c2ccc(Br)cc2)c1 (stereo not drawn) [drawing 82] | 100/100%
N#Cc1cnn(C2CN(C(=O)Nc3ccc(OC(F)(F)F)cc3)N=C2c2ccc(I)cc2)c1 (stereo not drawn) [drawing 83] | 100/100%
N#Cc1cnn(C2CN(C(=O)Nc3ccc(S(=O)(=O)C(F)(F)F)cc3)N=C2c2ccc(Cl)cc2)c1 (stereo not drawn) [drawing 84] | 100/100%
N#CCN(C(=O)N1CC(n2cc(C#N)cn2)C(c2ccc(Cl)cc2)=N1)c1ccc(OC(F)(F)F)cc1 (stereo not drawn) [drawing 85] | 100/100%

Same assay, conditions: 100 ppm; after 48 h

SMILES | activity/kill rate in % after 48 h
N#Cc1cnn(C2CN(C(=O)Nc3ccc(OC(F)(F)F)cc3)N=C2c2ccc(Cl)cc2)c1 (stereo not drawn) [drawing 78] | 100/100%
COC(=O)N(C(=O)N1CC(n2cc(C#N)cn2)C(c2ccc(Cl)cc2)=N1)c1ccc(OC(F)(F)F)cc1 (stereo not drawn) [drawing 79] | 100/100%
N#Cc1cnn(C2CN(C(=O)Nc3ccc(OC(F)(F)F)cc3)N=C2c2ccc(Br)cc2)c1 (stereo not drawn) [drawing 81] | 100/100%
N#Cc1cnn(C2CN(C(=O)Nc3ccc(S(=O)(=O)C(F)(F)F)cc3)N=C2c2ccc(Br)cc2)c1 (stereo not drawn) [drawing 82] | 100/100%
N#Cc1cnn(C2CN(C(=O)Nc3ccc(OC(F)(F)F)cc3)N=C2c2ccc(I)cc2)c1 (stereo not drawn) [drawing 83] | 100/100%
N#Cc1cnn(C2CN(C(=O)Nc3ccc(S(=O)(=O)C(F)(F)F)cc3)N=C2c2ccc(Cl)cc2)c1 (stereo not drawn) [drawing 84] | 100/100%
N#CCN(C(=O)N1CC(n2cc(C#N)cn2)C(c2ccc(Cl)cc2)=N1)c1ccc(OC(F)(F)F)cc1 (stereo not drawn) [drawing 85] | 100/100%

Same assay, conditions: Lucilia cuprina, 48 h, read-out: activity/kill rate in % after 48 h

SMILES | pest or weed control at 100 ppm [%]
CCOC(=O)N(C(=O)N1CC(n2cc(C#N)cn2)C(c2ccc(Cl)cc2)=N1)c1ccc(OC(F)(F)F)cc1 (stereo not drawn) [drawing 80] | 100
